Laboratory results as given in US9675556B2, “Biodegradable stealth polymeric particles fabricated using the macromonomer approach by free radical dispersion polymerization” (Howard University, priority 2010, dated 2017).

Legend:
Assay in all cases: CellTiter-Glo luminescent cell viability assay (in vitro cytotoxicity)
Type in all cases: cell-based
Settings in all cases: […] to 120 nM paclitaxel, 48, 72 and 96 hours
SK-OV-3 cells = system: SK-OV-3 cells
Protocol: (§1) The concentrations tested range from 2.5 nM to 120 nM. The experiment was carried out as follows: Cultured cells (MCF-7, SK-OV 3, and MDA-MB-231) were seeded in 96-well plates at a seeding density of 6000 cells/well/0.1 mL medium and allowed to attach for 24 hours. […] To allow direct comparison, the amount of paclitaxel-loaded nanoparticles containing the same amount of paclitaxel as the paclitaxel in solution was used. Control cells were treated with medium only, medium with 0.05% DMSO, and medium containing blank nanoparticles at the highest concentration tested.
(§2) Cell viability was assessed at 48-, 72- and 96-hours post treatment respectively. Briefly, at the predetermined time intervals the treatment was washed off and fresh medium added. An amount of the CellTiter®-Glo reagent equal to the amount of medium was added. The plate was mixed by shaking on an orbital shaker for 2 minutes to induce cell lysis and luminescence was measured after 10 minutes using the FLUOstar OPTIMA plate reader (BMG LABTECH). In this assay, the number of viable cells in culture is determined by quantification of the ATP present which is an index of the presence of metabolically active cells (CellTiter®-Glo Luminescent Cell Viability Assay Technical Bulletin, TB 288; Promega). Results are presented as percent viability normalized to controls and represent the mean±S.D. of 4 replicates per concentration tested, as shown in FIG. 9. The results were analyzed by using Student's t-test using the SPSS® statistical software. Differences were considered significant at p<0.05.

MCF-7 cells = system: MCF-7 cells
Protocol: as §1, §2

MDA-MB-231 cells = system: MDA-MB-231 cells
Protocol: as §1, §2

Measured: cell growth inhibition (cell viability)

CC(=O)O[C@H]1C(=O)[C@@]2(C)[C@H]([C@H](OC(=O)c3ccccc3)[C@]3(O)C[C@H](OC(=O)[C@H](O)[C@@H](NC(=O)c4ccccc4)c4ccccc4)C(C)=C1C3(C)C)[C@]1(OC(C)=O)CO[C@@H]1C[C@@H]2O [paclitaxel solution, paclitaxel]
inhibited cell growth: all assays above
